In test [1] the test system is P. falciparum W2 (CQ-resistant) asexual blood stages. The test is described as follows: In vitro activity against asexual blood stages of P. falciparum, CQ-resistant strain W2 (HRP2 ELISA). The format is cell-based. To be noted: Plasmodium falciparum, W2. How it is done:
The plates were incubated for 72 h at 37 °C in controlled atmosphere. After frozen and thawing the plates, hemolyzed cultures were homogenized by vortexing the plates. The antiparasitic activity was determined using the HRP2 ELISA-based assay Malaria Ag Celisa kit (ref KM2159, Cellabs PTY LDT, Brookvale, Australia). […] IC50s are expressed as means of three to five experiments.

Test [2] concerns 3D7 P. falciparum gametocytes stages I/III. The test is described as follows: P. falciparum young gametocytes (stages I/III), luciferase viability. Format: cell-based. As to conditions: Plasmodium falciparum; 3D7 strain, 72 h; mean ± S.D. of one experiment; read-out: IC50, gametocytes of P. falciparum, Stages I/III. How it is done:
The activity of compounds was assessed against young gametocytes (stages I/III) and against mature gametocytes (stage V). […] A volume of 100 μL of 3D7elo1-pfs16-CBG99 gametocytes of 3D7 P. falciparum at 0.5–1% parasitemia and 2% hematocrit were dispensed. […] Luciferase activity was used to determine gametocytes viability. A volume of 100 µL of culture medium was removed from each well to increase hematocrit; 70 µL of resuspended culture was transferred to a black 96-well plate; 70 µL of D-luciferin (1 mM in citrate buffer 0.1 M, pH 5.5) was added. Luminescence measurements were performed after 10 min with 500 ms integration time. The IC50 was extrapolated from nonlinear regression analysis of the concentration–response curve.

The subject of test [3] is β-hematin formation from Fe(III)PPIX (hematin). In words: β-hematin inhibition activity, oxidizing conditions (O-BHIA, hematin). The format is biochemical. To be noted: 18 h incubation; median ± S.E.M. of three experiments; free bases; read-out: β-Hematin Inhibitory Activity (BHIA) O-BHIA (Hematin), IC50. How it is done: (§1) A hemin chloride (10 μL of 4 mM stock in 80% DMSO) aliquot was dispensed in a U bottom 96-well microplate, and then, 10 μL of 0.1 M NaOH (O-BHIA) or 4 mM reduced glutathione in PBS at pH 7.0 (R-BHIA) was added, and plates were sealed and incubated at 37 °C for 2 h. After this, 10 μL of the drug dissolved in DMSO was added and incubated for 2 h, followed by the addition of 180 μL of sodium acetate buffer (1.0 M, pH 5.2) and 10 μL of nonionic detergent IGEPAL-CA-630 solution in methanol (10 mg/mL). Plates were sealed and incubated at 37 °C for 18 h. […] The reaction was stopped by the addition of 50 μL of a sodium dodecyl sulfate solution (5.0% v/v in 0.1 M bicarbonate buffer at pH 9.0). Plates were centrifuged at 3700 rpm for 5 min, and 100 μL of supernatant was placed in a separate plate. […] Two independent experiments were performed, and each drug concentration was tested in quadruplicate concentrations.

Test [4] concerns β-hematin formation from Fe(II)PPIX (heme). The test is described as follows: β-hematin inhibition activity, reducing conditions (R-BHIA, heme). Format: biochemical. As to conditions: 18 h incubation; median ± S.E.M. of three experiments; free bases; read-out: β-Hematin Inhibitory Activity (BHIA) R-BHIA (Heme), IC50. How it is done: as §1
The target of a further test is T1, human TrxR (hTrxR) (Homo sapiens, UniProt Q16881).
T1 construct: made in house
T1 sequence (Q16881 151-649 limits assumed): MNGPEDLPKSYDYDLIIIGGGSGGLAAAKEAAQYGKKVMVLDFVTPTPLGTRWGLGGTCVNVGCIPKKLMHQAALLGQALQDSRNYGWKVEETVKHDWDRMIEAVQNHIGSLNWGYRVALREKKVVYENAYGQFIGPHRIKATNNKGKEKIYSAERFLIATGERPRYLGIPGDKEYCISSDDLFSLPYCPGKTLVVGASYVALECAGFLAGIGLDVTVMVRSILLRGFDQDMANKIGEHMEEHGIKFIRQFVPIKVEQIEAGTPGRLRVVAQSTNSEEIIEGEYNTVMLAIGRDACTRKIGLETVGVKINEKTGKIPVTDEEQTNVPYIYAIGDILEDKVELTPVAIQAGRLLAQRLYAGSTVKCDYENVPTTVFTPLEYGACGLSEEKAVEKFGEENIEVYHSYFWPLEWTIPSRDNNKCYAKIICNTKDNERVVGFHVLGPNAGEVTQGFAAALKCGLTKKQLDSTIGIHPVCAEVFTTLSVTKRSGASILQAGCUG
In words: Inhibition of enzymatic activity of recombinant human TrxR. Format: biochemical. To be noted: recombinant enzyme, 15 min preincubation; mean of one experiment; read-out: IC50 for TrxRs, Human (Sec). How it is done:
The codon-optimized sequence for PfTrxR [27, 28] was synthesized and subcloned into pET-15b (Genscript) and expressed and purified as for human glutathione reductase (hGR). Recombinant Schistosoma mansoni (S. mansoni) thioredoxin glutathione reductase (SmTGR), human TrxR (hTrxR), and hGR proteins were expressed and purified as described. TrxR and TGR enzyme inhibition assays were performed in triplicate at 25 °C in 0.1 M potassium phosphate (pH 7.4), 10 mM EDTA, 100 µM NADPH and 0.01% Tween-20. SmTGR (4 nM), hTrxR (4 nM), and PfTrxR (50 nM) were preincubated with the compounds for 15 min. The reaction was started with addition of an equal volume of 5,5′-dithiobis(2-nitrobenzoic acid) (6 mM) and NADPH (100 µM). The increase in A412 during the first 3 min was recorded. […]. The reactions were performed in triplicate. The IC50s were calculated in Prism version 5.01.

Test [5] can be described thus: Interaction with reduced glutathione (GSH) by monochlorobimane fluorescence assay. How it is done:
Ten microliters per well of a solution of 2.0 mM reduced glutathione (Sigma-Aldrich, St. Louis, MO, USA, dissolved in PBS pH 7.2) was distributed in a 96-well microplate containing 170 μL/well of DMSO/PBS (1:1; v/v). Stock solutions of compounds were diluted in DMSO, and 10 μL was added in quadruplicate in the respective wells to a final concentration of 0.015 to 0.5 mM. […] After 1 h incubation at room temperature, fluorescence was recorded (λex = 360 nm, λem = 440 nm). Blank subtraction was performed prior to monochlorobimane addition, and controls included untreated wells (no drug) and no GSH. The results were expressed as a percentage of inhibition of GSH binding to monochlorobimane in comparison to control without compound. At least two independent experiments were performed.

The structures appear in SMILES notation. Read-outs that look alike come from different tables or passages of the source.

On to `CCN(CC)Cc1cc(Nc2ccnc3cc(Cl)ccc23)ccc1O` [Amodiaquine (AQ), amodiaquine], for which the IC50 in test [1] (72 h incubation, HRP2 ELISA, mean ± S.E.M. of at least three experiments, AQ hydrochloride hydrate, PQ diphosphate, CQ diphosphate, read-out: P. falciparum, IC50 ± S.E.M., CQ-Resistant W2) amounted to 86.2 ± 9.4 nM; in test [1] (Figure 5 summary, read-out: CQ-resistant P.f.) it was 86 ± 9 nM; in test [2] it was 61 ± 20 nM; in test [3] it was 140 ± 30 µM; in test [4], 100 ± 10 µM; at human TrxR (hTrxR), 26.5 µM.

`[Cl][Au].c1ccc(P(c2ccccc2)c2ccccc2)cc1` [[AuClPPh3]]: the IC50 at human TrxR (hTrxR) stood at 0.00065 µM. Also, the “interaction with GSH” value in test [5] (2 h incubation, 10 to 0.3 drug:GSH molar ratio) is on record as “able to interact with GSH in a drug-concentration manner”. In addition, in test [5] (24 h versus 2 h incubation), the “binding to GSH at 24 h versus 2 h incubation” value is “remained almost unaltered”.

Source of the values: publication PMC9229949 (Pharmaceutics, 2022).
